One assay concerns HepG2 cells. The assay is described as follows: Cellular uptake assay of AF488-labeled antibody (HepG2). Conditions: HepG2 cells. Format: cell-based. The protocol:
The cellular uptake assay is designed to measure compound-mediated cellular uptake of fluorescently labeled antibody following ternary complex formation with the ASGPR receptor and endocytosis of the entire complex into cells.
Human IgG (Sigma-Aldrich, 14506) was covalently labeled with Alexa Fluor 488 using the Alexa Fluor™ 488 Protein Labeling Kit (Thermo Fisher, A10235) following the manufacturer's instructions. HepG2 cells were plated in DMEM supplemented with 10% FBS at 5,000 cells per well in a 96-well microtiter plate and incubated for approximately 18 hours at 37° C./5% CO2. For studies using human IgG, 100 nM AF488-labeled human IgG antibodies and serial dilutions of IgG-based degrader (0.1% DMSO final concentration) were added to the cells and the mixture was incubated at 37° C. for 6 hours. For studies using DNP, 100 nM AF488-labeled DNP antibodies and serial dilutions of DNP-based degrader (0.1% DMSO final concentration) were added to the cells and the mixture was incubated at 37° C. for 6 hours. HepG2 cells were fixed in 100% methanol at −20° C. for 20 min, washed 3× with PBS, then stained with DAPI (Thermo, Cat #H3570). HepG2 cells were imaged for DAPI and Alexa Fluor 488 using the Operetta CLS, high-content analysis system (PerkinElmer). Data is presented as the ratio of the number of cells positive for hIgG or DNP (AF-488 fluorescence) over the total cell number (measured by DAPI).

For another assay, the target named is IgG. The assay is described as follows: Affinity to IgG by surface plasmon resonance (SPR). Format: binding. The protocol:
Immobilization levels ranging from 1000-1300 resonance units (RU) are obtained. The running buffer is 10 mM HEPES, pH 7.4, 400 mM NaCl, 0.005% P20, […].
A general note: Surface plasmon resonance follows binding to a sensor surface in real time, without labels.

Where [1] appears, read: 100 nM AF488-labeled antibody, 37° C. for 6 hours, class symbols, read-out: Uptake Assay EC50.

SMILES strings stand for the structures. Like-named read-outs stand apart in the source and are kept apart here.

As to `CC(C)C[C@@H]1NC(=O)[C@H](Cc2c[nH]cn2)NC(=O)[C@H](Cc2c[nH]c3ccccc23)NC(=O)[C@H](C)NC(=O)[C@@H]2CSSC[C@H](NC(=O)[C@H](Cc3c[nH]c4ccccc34)NC(=O)[C@H](C(C)C)NC(=O)[C@H](CC(C)C)NC(=O)[C@H](CCC(=O)O)NC(=O)CNC1=O)C(=O)N[C@@H]([C@@H](C)O)C(=O)N1CCC[C@@H]1C(=O)N1C[C@@H](NC(=O)CCOCCOCCNC(=O)CCCc3cn(C[C@@]45CO[C@@H](O4)[C@H](Nc4nc(Cl)ns4)[C@@H](O)[C@H]5O)nn3)C[C@H]1C(=O)N[C@@H](CC(=O)O)C(=O)N2` [Compound 13], the concentration for a half-maximal effect (EC50) in the assay on HepG2 cells (setting [1]) lay within 100 to 500 nM. For the molecule `CC(C)C[C@@H]1NC(=O)[C@H](Cc2c[nH]cn2)NC(=O)[C@H](Cc2c[nH]c3ccccc23)NC(=O)[C@H](C)NC(=O)[C@@H]2CSSC[C@H](NC(=O)[C@H](Cc3c[nH]c4ccccc34)NC(=O)[C@H](C(C)C)NC(=O)[C@H](CC(C)C)NC(=O)[C@H](CCC(=O)O)NC(=O)CNC1=O)C(=O)N[C@@H]([C@@H](C)O)C(=O)N1CCC[C@@H]1C(=O)N1C[C@@H](NC(=O)CCOCCOCCOCCOCCNC(=O)CCCc3cn(C[C@@]45CO[C@@H](O4)[C@H](Nc4nc(Cl)ns4)[C@@H](O)[C@H]5O)nn3)C[C@H]1C(=O)N[C@@H](CC(=O)O)C(=O)N2` [Compound 15], the equilibrium dissociation constant (Kd) on IgG (Biacore 8K, 25° C., IgG on CM5 chip, read-out: IgG SPR Binding Kd) was under 100 nM. Moreover, in the assay with HepG2 cells (setting [1]), the EC50 is 100 to 500 nM. `CC(C)C[C@@H]1NC(=O)[C@H](Cc2c[nH]cn2)NC(=O)[C@H](Cc2c[nH]c3ccccc23)NC(=O)[C@H](C)NC(=O)[C@@H]2CSSC[C@H](NC(=O)[C@H](Cc3c[nH]c4ccccc34)NC(=O)[C@H](C(C)C)NC(=O)[C@H](CC(C)C)NC(=O)[C@H](CCC(=O)O)NC(=O)CNC1=O)C(=O)N[C@@H]([C@@H](C)O)C(=O)N1CCC[C@@H]1C(=O)N1C[C@@H](NC(=O)CNC(COCCC(=O)NCCOCCOCCOCCOC[C@H]3OC[C@H](Nc4cncc(C(F)(F)F)n4)[C@@H](O)[C@H]3O)COCCC(=O)NCCOCCOCCOCCOC[C@H]3OC[C@H](Nc4cncc(C(F)(F)F)n4)[C@@H](O)[C@H]3O)C[C@H]1C(=O)N[C@@H](CC(=O)O)C(=O)N2` [Compound 74]: the Kd on IgG (SPR, read-out: IgG KD) is under 100 nM. In addition, the half-maximal effective concentration (EC50) in the assay on HepG2 cells (read-out: Uptake EC50) is under 100 nM. As to `CC(C)C[C@@H]1NC(=O)[C@H](Cc2c[nH]cn2)NC(=O)[C@H](Cc2c[nH]c3ccccc23)NC(=O)[C@H](C)NC(=O)[C@@H]2CSSC[C@H](NC(=O)[C@H](Cc3c[nH]c4ccccc34)NC(=O)[C@H](C(C)C)NC(=O)[C@H](CC(C)C)NC(=O)[C@H](CCC(=O)O)NC(=O)CNC1=O)C(=O)N[C@@H]([C@@H](C)O)C(=O)N1CCC[C@@H]1C(=O)N1C[C@@H](NC(=O)CCOCCOCCOCCOCCNC(=O)CCCc3cn(CCCCCC(=O)NC(COCCC(=O)NCCOCCOCCOCCOC[C@@]45CO[C@@H](O4)[C@H](Nc4nc(Cl)ns4)[C@@H](O)[C@H]5O)COCCC(=O)NCCOCCOCCOCCOC[C@@]45CO[C@@H](O4)[C@H](Nc4nc(Cl)ns4)[C@@H](O)[C@H]5O)nn3)C[C@H]1C(=O)N[C@@H](CC(=O)O)C(=O)N2` [Compound 14], the half-maximal effective concentration (EC50) with HepG2 cells (setting [1]) was under 100 nM. On the same count and under the same terms, then `CC(C)C[C@@H]1NC(=O)[C@H](Cc2c[nH]cn2)NC(=O)[C@H](Cc2c[nH]c3ccccc23)NC(=O)[C@H](C)NC(=O)[C@@H]2CSSC[C@H](NC(=O)[C@H](Cc3c[nH]c4ccccc34)NC(=O)[C@H](C(C)C)NC(=O)[C@H](CC(C)C)NC(=O)[C@H](CCC(=O)O)NC(=O)CNC1=O)C(=O)N[C@@H]([C@@H](C)O)C(=O)N1CCC[C@@H]1C(=O)N1C[C@@H](NC(=O)CCOCCOCCNC(=O)CCCc3cn(CCCCCC(=O)NC(COCCC(=O)NCCOCCOCCOCCOC[C@H]4OC[C@H](Nc5nccc(C(F)(F)F)n5)[C@@H](O)[C@H]4O)COCCC(=O)NCCOCCOCCOCCOC[C@H]4OC[C@H](Nc5nccc(C(F)(F)F)n5)[C@@H](O)[C@H]4O)nn3)C[C@H]1C(=O)N[C@@H](CC(=O)O)C(=O)N2` [Compound 12], with under 100 nM.

Broadly, the EC50 is the concentration that produces a half-maximal response. What is called Kd is the concentration at which binding is half-saturated.
